The text below walks through data of patent US20230097883A1, “ERGOTHIONEINE PET COMPOUNDS AND METHODS OF USE THEREOF” (VANDERBILT UNIVERSITY, priority 2021, published 2023).

The subject of this experiment is oxidative stress. Nature of the experiment: PET imaging of LPS-induced neuroinflammation with [11C]ERGO radioligand, with Tempol blocking. As to conditions: LPS-treated WT mice, Tempol 0.2 mg/mL prior to [11C]ERGO. Format: in vivo, mouse. The procedure: The mice were injected with ˜20 MBq/0.1 ml 11C-ERGO via the tail vein and returned to their cages for 10 min. Then they were anesthetized with 2% isofluorane and imaged in an Inveon microPET (Siemens Pre-clinical, Knoxville, Tenn., USA) for 30 min in static mode followed by a CT scan using a NanoSPECT/CT (Mediso, Wash. D.C.) at an x-ray beam intensity of […] and x-ray voltage of 45 kVp. PET images were reconstructed using the iterative MAP reconstruction algorithm with 18 iterations and a beta smoothing value of 0.001 into 128×128×95 slices with a voxel size of 0.388 mm×0.388 mm×0.796 mm. The CT images were reconstructed into 170×170×126 slices at a voxel size of 0.4×0.4×0.4 mm^3. The PET and CT images were co-registered using the imaging tool AMIDE.
The mouse model of LPS-induced neuroinflammation was developed based on past reports. The LPS derived from Escherichia coli […] (Sigma Aldrich, St Louis, Mo.) was formulated in sterilized dd. water and given a high dose of LPS formulation (5 mg/Kg) through intraperitoneal injection 24 h before PET imaging. This high dose would result in approximately 12-13% body weight loss over the course of 24 h. After PET imaging, animals were sacrificed, and the brains were collected for histology analysis.
The reported LPS mouse model of neuroinflammation in the past was reproduced for the validation of the specificity of the probe. […]

Regarding `CC1(C)CC(O)CC(C)(C)N1[O]` [Tempol, 4-hydroxy-2,2,6,6-tetramethyl piperidinoxyl, reference compound], the “[11C]ERGO PET signal in brain of LPS-treated mice after co-injection with excess Tempol (blocking)” value is “significant reduction of the PET signal”.
